Measured values taken from patent publication US9993444B2, “Use of beta-adrenergic inverse agonists for smoking cessation” (INVION, INC., priority 2011, dated 2018).
Entries after “also recorded” stand apart in the source; their conditions may differ.

Key:
[1] = acute administration; U.S. Pat. No. 6,284,800; cited from earlier work
β-adrenergic receptor = settings: cited from earlier work
[2] = test system: tracheas from asthmatic mice; settings: chronically treated asthmatic mice, excised tracheas; WO 02/29534; cited from earlier work
patients with CHF = settings: cited from earlier work
[3] = test system: sensitized and challenged mice; experiment: Airway hyperresponsiveness to methacholine in a mouse model of obstructive lung disease, chronic administration; format: in vivo; settings: for airway hyperresponsiveness: compared to untreated sensitized and challenged mice
Description: Even though alprenolol is a β-adrenergic antagonist, it has partial agonist activity. Carvedilol is a β1/β2 non-selective adrenergic antagonist with α1-adrenergic antagonist activity.

asthmatic mice [4] = experiment: Lung histology (periodic acid-Schiff stain, goblet cells/mucus) after chronic inverse agonist treatment of ovalbumin-sensitized and -challenged mice; format: in vivo, Balb/cJ mice
Description: (§1) Mice were made asthmatic by sensitization to the antigen ovalbumin. Balb/cJ mice aged 6 weeks (Jackson Animal Laboratory, Bar Harbor, Me.) were housed under specific pathogen-free conditions and fed a chicken ovalbumin-free diet. Mice were sensitized with subcutaneous injection of 25 μg of ovalbumin adsorbed to aluminum hydroxide on protocol days 2, 9, and 16. Subsequently, mice were given […] of saline solution containing 25 μg of ovalbumin intranasally, on a daily basis, from protocol days 23 through 27. A group of ovalbumin-sensitized saline-challenged mice serves as controls for systemic sensitization and respiratory challenges with ovalbumin. Prior to intranasal administrations, mice were sedated with halothane vapor. For the study of this Example, ovalbumin-sensitized and ovalbumin-challenged mice, and ovalbumin-sensitized and saline-challenged mice will be referred to as asthmatic mice and control mice, respectively.
(§2) Animals received drug treatment for 7 days from day 21 to 27 of the sensitization/challenging protocol; ICI-118,551 at 10 mg/kg, was administered 3 times a day subcutaneously by osmotic minipump (Alzet®, #2004, Durect Corporation, Cupertino, Calif.). ICI-118,551 was dissolved in 50% DMSO. […]

asthmatic mice [5] = experiment: Lung histology (hematoxylin-eosin) after chronic inverse agonist treatment of ovalbumin-sensitized and -challenged mice; format: in vivo, Balb/cJ mice; settings: ICI-118,551 10 mg/kg subcutaneously by osmotic minipump, 7 days (day 21 to 27)
Description: as §1, §2

CC(C)NC[C@H](O)COc1cccc2ccccc12 [L-form of propranolol, propranolol]
specific lung resistance [1]: increased specific lung resistance

CC(C)NC[C@@H](O)COc1cccc2ccccc12 [D-propranolol]
antigen-induced bronchoconstriction and airway hyperresponsiveness [1]: beneficial in inhibiting antigen-induced bronchoconstriction and reducing airway hyperresponsiveness | potency in inhibiting the β-adrenergic receptor relative to the L-form (β-adrenergic receptor; U.S. Pat. No. 5,116,867): 1/100 | activity with respect to β-adrenergic receptors (β-adrenergic receptor; U.S. Pat. No. 6,284,800): inactive

COc1ccccc1OCCNCC(O)COc1cccc2[nH]c3ccccc3c12 (stereo not shown) [carvedilol]
rank of effectiveness on tracheal contraction in response to methacholine [2]: followed by carvedilol | clinical outcome in congestive heart failure (mortality / benefit over placebo) (patients with CHF): significant mortality reduction | sensitivity of the responsiveness to methacholine [3]: shifts the sensitivity of the responsiveness to methacholine to lower concentrations | airway hyperresponsiveness [3]: does reduce airway hyperresponsiveness

Cc1ccc(OCC(O)C(C)NC(C)C)c2c1CCC2 (stereo not shown) [ICI 118,551]
appearance of lung epithelial cells, PAS stain (FIG. 6) (asthmatic mice [4]; ICI-118,551 10 mg/kg subcutaneously by osmotic minipump, 7 days (day 21 to 27)): appear substantially normal | transformation of lung epithelium from ciliated cells to mucus-producing goblet cells (FIGS. 1-6) (asthmatic mice [4]; chronic treatment): restores the airway epithelium to a normal healthy state; also recorded: substantially reversed the transformation of lung epithelium | rank of effectiveness on tracheal contraction in response to methacholine [2]: then ICI-118,551 | appearance of lung epithelial cells, hematoxylin-eosin staining (FIG. 3) (asthmatic mice [5]): substantially returned to their normal appearance

COCCc1ccc(OCC(O)CNC(C)C)cc1 (stereo not shown) [metoprolol]
clinical outcome in congestive heart failure (mortality / benefit over placebo) (patients with CHF): significant mortality reduction

C=CCc1ccccc1OCC(O)CNC(C)C (stereo not shown) [alprenolol]
rank of effectiveness on tracheal contraction in response to methacholine [2]: most effective compound | airway hyperresponsiveness [3]: does not reduce airway hyperresponsiveness; also recorded: without any activity

CC(C)(Cc1c[nH]c2ccccc12)NCC(O)COc1ccccc1C#N (stereo not shown) [bucindolol]
clinical outcome in congestive heart failure (mortality / benefit over placebo) (patients with CHF): failed to demonstrate any benefit over placebo
